Measurements published in patent US20260083743A1, “NUCLEOSIDE DERIVATIVE FOR PREVENTING AND TREATING INFLAMMATION AND APPLICATION THEREOF” (WEST CHINA HOSPITAL OF SICHUAN UNIVERSITY, priority 2019, published 2026).

Tests used:
[1] = system: sodium taurocholate-induced pancreatitis model; assay: Improvement effect on pancreatitis, sodium taurocholate-induced model in mice; format: in vivo, Blab/c mice; design: Pancreatic histopathological injury score: scale not given here; details: 17.5 mg/kg caudal vein 1 h, 3 h and 6 h after model construction; after 24 hours; n = 10
Source text: In this example, the improvement effect of compounds 1 19 prepared in example 1 on […] measured. (1) Animals: Adult and Healthy Male Blab/c Mice, 25 30 g. […] A model was made with sodium taurocholate. […] After anesthesia, the surgical site was sterilized with an alcohol cotton ball. The sterile gauze was placed on the surgical site. A laparotomy was made at the width of two fingers under the xiphoid process. After seeing the liver, an incision was made, the cotton swab soaked in normal saline was stretched into the enterocoelia, the duodenum was sought on the back of the liver, turned out and placed on the sterile gauze, the pancreaticobiliary duct and duodenal papilla were sought, and the needle of 1 mL syringe was used to pierce a hole on the along the direction of the nipple, a 24 G indwelling needle tube was inserted into the pancreatic duct along the nipple, and the common bile duct below the liver was closed with an arterial vascular clip, with a dose of 0.1 mL/100 g and 0.1 mL/min inject sodium taurocholate with a concentration of 3.8% at a flow rate. During this process, pay attention to adding saline to the exposed pancreas and duodenum to keep it moist. After the injection, the tube was slowly taken out and the bile duct was continued to be closed. The main tube was removed from the vascular artery clip 3 minutes later, the duodenum was also accommodated, and the abdominal cavity was sutured in double layers. The blank control group was injected with equal volume of isotonic saline. […] The blank control group and the model control group were given equal volume of isotonic saline. After 24 hours, pancreatic tissue and blood samples were taken, and the pancreatic histopathological injury score and the level of pancreatic amylase in serum were evaluated.

arthritis model = assay: Improvement effect on arthritis, sodium iodoacetate knee joint model in SD rats; format: in vivo; design: Pathological tissue score (joint): scale not given here; details: gavage every day 100 mg/kg/d; 4th week after operation; n = 10
Procedure: In this example, the improvement effect of compounds 1˜19 prepared in example 1 on arthritic was measured. (1) Animals: SD rats, four rates in one cage, were fed under the conditions of constant temperature (25±2° C.) and illumination control (12 h day/night circulation). The animals were fed with standard feed, and fed for at least 7 days to adapt environment before the experiment. […] (3) SD rats were fasted for 12 hours before operation, and weighed and recorded prior to operation. The blank control group was not treated any more. […] After anesthesia, they were fixed in the supine position. 0.1 ml of 1 g/L sodium iodoacetate solution was injected into the knee joint. From the fifth day, the animals were driven to run for 30 minutes every day, and they were allowed to move freely in the cage the rest of the time. After modeling, indomethacin and compounds 1˜19 were given by gavage every day at the dose of 100 mg/kg/d. The blank control group and the model control group were given equal volume of isotonic saline. At the 4th week after operation, the articular fluid of rats in each group was extracted to measure the content of MMP-13. The rats were killed, and the subchondral bone plate of the inner condyle of the tibia of the right knee was cut and processed into specimens, and pathological scores were made.

mouse hepatitis model = assay: Improvement effect on hepatitis, concanavalin A (ConA) mouse hepatitis model; format: in vivo, Blab/c mice; details: gavage 50 mg/kg, n = 10
Procedure: In this example, the improvement effect of compounds 1 19 prepared in example 1 on […] measured. (1) Animals: Adult and Healthy Male Blab/c Mice, 25 30 g. […] The blank control group was injected with equal volume of isotonic saline. After modeling, indomethacin and compounds 1 19 were given by gavage every day at the dose of 50 mg/kg. The blank control group and the model control group were given equal volume of isotonic saline. Eyeball blood and liver tissue were taken at 6 h, 12 h, 24 h and 48 h after administration. The levels of serum alanine aminotransferase (ALT) and aspartate aminotransferase (AST) were measured.

| Structure (SMILES) | Amylopsin (pancreatic amylase level in serum) [1] [KU/L] | Pancreatic histopathological injury score [1] | MMP-13 content in joint fluid (arthritis model) [mg/L] | Pathological tissue score (joint) (arthritis model) | Aspartate aminotransferase (AST) (mouse hepatitis model; 6 h after administration) [U/L] | Serum alanine aminotransferase (ALT) (mouse hepatitis model; 6 h after administration) [U/L] | Aspartate aminotransferase (AST) (mouse hepatitis model; 12 h after administration) [U/L] | Serum alanine aminotransferase (ALT) (mouse hepatitis model; 12 h after administration) [U/L] | Serum alanine aminotransferase (ALT) (mouse hepatitis model; 24 h after administration) [U/L] | Aspartate aminotransferase (AST) (mouse hepatitis model; 48 h after administration) [U/L] | Serum alanine aminotransferase (ALT) (mouse hepatitis model; 48 h after administration) [U/L] | Aspartate aminotransferase (AST) (mouse hepatitis model; 24 h after administration) [U/L] |
| --- | --- | --- | --- | --- | --- | --- | --- | --- | --- | --- | --- | --- |
| Cn1c(=O)c2c(ncn2C)n(C)c1=O [Caffeine, caffeine, reference compound] | 16 ± 2 | 2.6 ± 0.4 | 59 ± 8 | 2.6 ± 0.4 | 260 ± 31 | 590 ± 54 | 860 ± 91 | 1456 ± 132 | 2632 ± 321 | 943 ± 91 | 1432 ± 152 |  |
| CCn1c(=O)c2c(ncn2C)n(C)c1=O [Compound 1, 1-ethyl-3-7-dimethylxanthine] | 3 ± 1 | 0.4 ± 0.3 | 86 ± 4 | 0.2 ± 0.3 | 43 ± 7 | 56 ± 8 | 82 ± 8 | 97 ± 8 | 132 ± 12 | 89 ± 9 | 100 ± 12 | 104 ± 8 |
| CC(C)n1c(=O)c2c(ncn2C)n(C)c1=O [Compound 2, 1-isopropyl-3,7-dimethylxanthine] | 4 ± 2 | 0.6 ± 0.2 | 92 ± 8 | 0.3 ± 0.4 | 53 ± 7 | 59 ± 8 | 89 ± 8 | 98 ± 6 | 142 ± 12 | 99 ± 9 | 112 ± 13 | 112 ± 10 |
| CCn1c(=O)c2ncn(C)c2n(C)c1=O [Compound 3, 1-ethyl-3,9-dimethylxanthine] | 3 ± 2 | 0.5 ± 0.2 | 97 ± 4 | 0.6 ± 0.3 | 59 ± 7 | 67 ± 8 | 96 ± 8 | 102 ± 8 | 152 ± 14 | 103 ± 9 | 113 ± 12 | 114 ± 11 |
| CCn1cnc2c1c(=O)n(C)c(=O)n2C [Compound 4, 1,3-dimethyl-7-ethylxanthine] | 11 ± 2 | 1.4 ± 0.4 | 102 ± 8 | 0.6 ± 0.4 | 65 ± 7 | 79 ± 8 | 91 ± 8 | 118 ± 9 | 142 ± 12 | 96 ± 9 | 105 ± 13 | 103 ± 9 |
| CCn1c(=O)c2c(ncn2CC)n(C)c1=O [Compound 5, 1,7-diethyl-3-methylxanthine] | 3 ± 1 | 0.4 ± 0.2 | 99 ± 5 | 0.7 ± 0.3 | 71 ± 7 | 73 ± 8 | 93 ± 8 | 109 ± 8 | 136 ± 12 | 91 ± 9 | 105 ± 12 | 101 ± 8 |
| CC(C)n1cnc2c(=O)[nH]cnc21 [Compound 6, 9-isopropyl hypoxanthine] | 2 ± 1 | 0.4 ± 0.1 | 90 ± 8 | 0.3 ± 0.4 | 49 ± 7 | 56 ± 5 | 86 ± 8 | 85 ± 6 | 136 ± 16 | 84 ± 8 | 103 ± 13 | 103 ± 9 |
| CC(C)n1c(=O)c2c(ncn2C(C)C)n(C)c1=O [Compound 7, 1,7-diisopropyl-3-methylxanthine] | 4 ± 2 | 0.5 ± 0.2 | 84 ± 5 | 0.3 ± 0.3 | 41 ± 7 | 51 ± 8 | 78 ± 8 | 93 ± 8 | 131 ± 12 | 84 ± 7 | 95 ± 12 | 101 ± 8 |
| CC(=O)OCCn1c(=O)c2c(ncn2C)n(C)c1=O [Compound 8, 1-(acetic acid-2-ethyl)-3,7-dimethylxanthine] | 5 ± 2 | 0.8 ± 0.4 | 92 ± 8 | 0.4 ± 0.5 | 68 ± 7 | 67 ± 8 | 95 ± 8 | 110 ± 13 | 172 ± 16 | 98 ± 9 | 132 ± 13 | 122 ± 12 |
| CCC(=O)OCCn1c(=O)c2c(ncn2C)n(C)c1=O [Compound 9, 1-(propionic acid-2-ethyl)-3,7-dimethylxanthine] | 5 ± 3 | 0.5 ± 0.4 | 97 ± 7 | 0.6 ± 0.2 | 78 ± 7 | 78 ± 8 | 123 ± 8 | 110 ± 13 | 175 ± 18 | 131 ± 14 | 123 ± 12 | 142 ± 13 |
| CC(C)C(=O)OCCn1c(=O)c2c(ncn2C)n(C)c1=O [Compound 10, 1-(isopropyl acid-2-ethyl)-3,7-dimethylxanthine] | 7 ± 5 | 0.6 ± 0.4 | 91 ± 8 | 0.7 ± 0.4 | 87 ± 9 | 83 ± 8 | 167 ± 19 | 132 ± 13 | 186 ± 19 | 176 ± 17 | 154 ± 17 | 189 ± 15 |
